Experimental data: patent US20140073637A1, “AMINO-SUBSTITUTED-ALKYLOXY-BENZO[E]PYRIDO[4,3-B]INDOLE DERIVATIVES AS NEW POTENT KINASE INHIBITORS” (INSTITUT CURIE, priority 2011, published 2014)

Experiments:
Assay in all cases: Kinase profiling in vitro at 1 μM
Type in all cases: biochemical
Brsk1 = Brsk1 (Homo sapiens, UniProt Q8TDC3); details: 1 microMolar in vitro, read-out: Percent of remaining activity
Description: (§1) The specificity of C14 was tested, in vitro, against 121 kinases representative of the kinome. Assays run in duplicate, at the concentration of 1 μM, were performed by MRC (Dundee, UK). Results are represented in FIG. 1. The main targets are highlighted in FIG. 1B. The profiling was performed at the MRC (Dundee University), in duplicate, on a set of 121 kinases. The panel is representative of the major different classes of kinases. Compounds were used at the concentration of 1 μM. In vitro, IC50 were determined on recombinant kinases by Reaction biology Corp (USA).

Phk = details: 1 microMolar in vitro
Description: as §1

MLK1 = MLK1 (Homo sapiens, UniProt P80192); details: 1 microMolar in vitro, read-out: Percent of remaining activity
Sequence of MLK1 (P80192 whole entry, species assumed): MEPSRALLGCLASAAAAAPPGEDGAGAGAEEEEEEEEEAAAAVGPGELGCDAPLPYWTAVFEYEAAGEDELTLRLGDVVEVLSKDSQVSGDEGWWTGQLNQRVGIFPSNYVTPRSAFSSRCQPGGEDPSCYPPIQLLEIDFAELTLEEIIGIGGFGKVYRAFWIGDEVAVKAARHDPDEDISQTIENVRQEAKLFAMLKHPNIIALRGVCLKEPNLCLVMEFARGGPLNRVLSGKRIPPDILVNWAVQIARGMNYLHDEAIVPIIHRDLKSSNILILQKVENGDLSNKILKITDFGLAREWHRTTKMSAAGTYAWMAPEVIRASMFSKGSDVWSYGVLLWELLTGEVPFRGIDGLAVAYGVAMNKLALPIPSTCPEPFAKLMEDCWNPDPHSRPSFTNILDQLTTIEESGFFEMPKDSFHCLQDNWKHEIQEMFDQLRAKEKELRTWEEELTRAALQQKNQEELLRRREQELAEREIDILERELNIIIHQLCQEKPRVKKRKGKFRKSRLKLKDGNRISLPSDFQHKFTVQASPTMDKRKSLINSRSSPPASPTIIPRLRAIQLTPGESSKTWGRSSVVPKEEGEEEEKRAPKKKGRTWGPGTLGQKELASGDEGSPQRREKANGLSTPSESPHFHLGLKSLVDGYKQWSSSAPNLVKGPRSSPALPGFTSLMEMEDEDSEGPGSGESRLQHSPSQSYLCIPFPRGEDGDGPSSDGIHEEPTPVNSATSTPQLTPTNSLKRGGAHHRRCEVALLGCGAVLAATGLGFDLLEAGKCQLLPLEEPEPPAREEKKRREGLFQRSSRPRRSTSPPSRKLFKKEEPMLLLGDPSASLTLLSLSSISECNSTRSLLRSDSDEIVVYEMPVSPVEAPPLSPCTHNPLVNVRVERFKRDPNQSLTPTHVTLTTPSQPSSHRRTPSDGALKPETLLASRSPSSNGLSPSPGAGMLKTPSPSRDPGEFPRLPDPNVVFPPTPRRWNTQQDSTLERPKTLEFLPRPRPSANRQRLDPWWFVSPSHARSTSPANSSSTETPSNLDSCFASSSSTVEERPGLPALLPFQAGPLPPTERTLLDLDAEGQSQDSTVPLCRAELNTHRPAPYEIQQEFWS
Description: as §1

Gck = Gck (Homo sapiens, UniProt Q12851); details: 1 microMolar in vitro, read-out: Percent of remaining activity
Sequence of Gck (Q12851 whole entry): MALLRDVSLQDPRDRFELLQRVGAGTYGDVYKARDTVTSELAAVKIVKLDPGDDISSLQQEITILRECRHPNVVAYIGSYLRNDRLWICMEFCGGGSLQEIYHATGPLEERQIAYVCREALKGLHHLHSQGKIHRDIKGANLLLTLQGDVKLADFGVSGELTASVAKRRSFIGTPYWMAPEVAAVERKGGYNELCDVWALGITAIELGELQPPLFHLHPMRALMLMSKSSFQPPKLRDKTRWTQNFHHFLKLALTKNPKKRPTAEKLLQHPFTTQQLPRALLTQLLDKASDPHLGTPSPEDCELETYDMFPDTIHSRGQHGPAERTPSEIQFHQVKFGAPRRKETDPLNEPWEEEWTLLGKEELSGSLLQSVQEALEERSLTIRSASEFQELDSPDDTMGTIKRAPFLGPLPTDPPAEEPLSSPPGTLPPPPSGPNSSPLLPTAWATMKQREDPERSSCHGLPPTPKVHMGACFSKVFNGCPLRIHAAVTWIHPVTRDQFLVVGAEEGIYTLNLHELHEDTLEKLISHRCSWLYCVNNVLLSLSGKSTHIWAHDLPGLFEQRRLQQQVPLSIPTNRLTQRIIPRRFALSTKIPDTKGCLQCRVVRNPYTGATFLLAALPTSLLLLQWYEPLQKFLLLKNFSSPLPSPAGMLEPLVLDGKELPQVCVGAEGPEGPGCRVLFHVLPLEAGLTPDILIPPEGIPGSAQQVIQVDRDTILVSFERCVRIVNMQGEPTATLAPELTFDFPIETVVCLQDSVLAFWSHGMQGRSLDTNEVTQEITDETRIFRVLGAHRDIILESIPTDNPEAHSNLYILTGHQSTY
Description: as §1

Sequence of Brsk1 (Q8TDC3 whole entry, species assumed): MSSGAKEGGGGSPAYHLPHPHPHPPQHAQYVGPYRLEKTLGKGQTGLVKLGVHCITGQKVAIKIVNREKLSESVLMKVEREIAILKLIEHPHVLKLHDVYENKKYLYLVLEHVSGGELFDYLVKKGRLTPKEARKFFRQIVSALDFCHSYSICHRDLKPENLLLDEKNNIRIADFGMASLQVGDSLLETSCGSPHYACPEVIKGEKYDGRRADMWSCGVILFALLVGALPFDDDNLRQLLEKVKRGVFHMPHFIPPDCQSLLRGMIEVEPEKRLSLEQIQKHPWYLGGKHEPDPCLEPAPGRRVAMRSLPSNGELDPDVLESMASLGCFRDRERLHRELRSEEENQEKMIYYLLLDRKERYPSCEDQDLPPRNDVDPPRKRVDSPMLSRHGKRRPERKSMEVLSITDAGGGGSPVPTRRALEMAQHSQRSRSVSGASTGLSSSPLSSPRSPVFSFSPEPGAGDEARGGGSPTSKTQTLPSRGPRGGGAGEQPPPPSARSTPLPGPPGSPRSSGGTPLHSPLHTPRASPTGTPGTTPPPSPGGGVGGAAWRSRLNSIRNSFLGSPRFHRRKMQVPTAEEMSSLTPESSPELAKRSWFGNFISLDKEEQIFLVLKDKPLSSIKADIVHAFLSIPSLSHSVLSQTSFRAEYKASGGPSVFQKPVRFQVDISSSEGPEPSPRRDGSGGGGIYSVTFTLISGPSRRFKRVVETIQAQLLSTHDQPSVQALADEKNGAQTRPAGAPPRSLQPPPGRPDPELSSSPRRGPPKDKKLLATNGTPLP

`Cc1c[nH]c(=O)c2c1[nH]c1ccc3cc(OCCN(C)C)ccc3c12` [Compound C14, 3-(2-N,N-Dimethylaminoethoxy)-8-methyl-7H,10H-benzo[e]pyrido(4,3-b)indol-11-one] was tested, and the remaining activity at 1 µM (Brsk1) was 22%, the “Percent of remaining activity” value (Phk) was 10% and the remaining activity at 1 µM (MLK1) was 27%. It also gave a remaining activity at 1 µM (Gck) of 11%.
